We go through six molecules from PMC4858680, “A platinum-based hybrid drug design approach to circumvent acquired resistance to molecular targeted tyrosine kinase inhibitors” (Scientific Reports, 2016).

Where two headings read alike, the source gives them in different places.

One test has as its target T1, EPHA7 (Homo sapiens, UniProt Q15375).
T1 construct: purchased DiscoveRx KINOMEscan
The format is binding. Conditions: for remaining binding at 10 µM: read-out: Percent control.

The target of another test is T2, ERBB3 (Homo sapiens, UniProt P21860).
T2 construct: purchased DiscoveRx KINOMEscan
It counts as binding. Conditions: for remaining binding at 10 µM: read-out: Percent control; for Percent control: ERBB3, 10 μM.

The next test concerns the target T3, ERBB2 (Homo sapiens, UniProt P04626).
T3 construct: purchased DiscoveRx KINOMEscan
It counts as binding. Conditions: for remaining binding at 10 µM: read-out: Percent control.

Another test has as its target T4, FGR (Homo sapiens, UniProt P09769).
T4 construct: purchased DiscoveRx KINOMEscan
It counts as binding. Conditions: for remaining binding at 10 µM: read-out: Percent control; for Percent control: 10 μM.

Test [1] addresses T5, JAK2(JH1domain-catalytic) (Homo sapiens, UniProt O60674).
T5 construct: JAK2(JH1domain-catalytic); purchased DiscoveRx KINOMEscan
It counts as binding. Conditions: for remaining binding at 10 µM: read-out: Percent control; for Percent control: 10 μM.

In the next test the target is PDGFRA (Homo sapiens, UniProt P16234). The test can be described thus: biochemical. Conditions: read-out: Percent control.
For a further test, the target named is T6, TNK2 (Homo sapiens, UniProt Q07912).
T6 construct: purchased DiscoveRx (KINOMEscan service)
It counts as binding. Conditions: for remaining binding at 10 µM: read-out: Percent control.

Another test has as its target T7, EPHA8 (Homo sapiens, UniProt P29322).
T7 construct: purchased DiscoveRx KINOMEscan
T7 sequence (P29322 28-1005): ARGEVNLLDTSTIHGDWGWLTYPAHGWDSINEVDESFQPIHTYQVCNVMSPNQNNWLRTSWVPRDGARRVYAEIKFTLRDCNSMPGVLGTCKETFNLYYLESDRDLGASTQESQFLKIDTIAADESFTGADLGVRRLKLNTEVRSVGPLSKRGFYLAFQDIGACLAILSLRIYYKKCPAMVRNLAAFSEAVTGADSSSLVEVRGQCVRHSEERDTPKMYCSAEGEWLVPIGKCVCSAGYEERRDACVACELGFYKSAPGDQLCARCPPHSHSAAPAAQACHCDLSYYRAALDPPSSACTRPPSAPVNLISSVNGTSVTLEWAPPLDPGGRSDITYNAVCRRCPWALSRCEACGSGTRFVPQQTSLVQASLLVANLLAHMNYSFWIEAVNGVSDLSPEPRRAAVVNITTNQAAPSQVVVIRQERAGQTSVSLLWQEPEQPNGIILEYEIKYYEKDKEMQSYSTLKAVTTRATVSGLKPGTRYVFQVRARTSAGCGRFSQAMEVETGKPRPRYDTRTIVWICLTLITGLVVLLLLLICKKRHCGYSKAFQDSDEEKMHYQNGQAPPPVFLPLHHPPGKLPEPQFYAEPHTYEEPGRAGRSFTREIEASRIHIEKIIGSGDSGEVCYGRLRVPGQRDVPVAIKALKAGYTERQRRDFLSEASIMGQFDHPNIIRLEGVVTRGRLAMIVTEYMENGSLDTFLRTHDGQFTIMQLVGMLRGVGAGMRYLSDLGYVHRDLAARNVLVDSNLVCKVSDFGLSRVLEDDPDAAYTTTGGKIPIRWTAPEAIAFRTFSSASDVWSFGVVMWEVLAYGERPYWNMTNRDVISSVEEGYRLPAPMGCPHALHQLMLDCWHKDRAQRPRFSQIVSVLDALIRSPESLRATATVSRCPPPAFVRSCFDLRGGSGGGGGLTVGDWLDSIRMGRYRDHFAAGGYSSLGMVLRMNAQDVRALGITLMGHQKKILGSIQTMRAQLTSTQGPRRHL
The format is binding. Conditions: for remaining binding at 10 µM: read-out: Percent control.

Test [2] has as its target T8, TYK2(JHSdomain-pseudokinase) (Homo sapiens, UniProt P29597).
T8 construct: TYK2(JHSdomain-pseudokinase); purchased DiscoveRx Corporation (KINOMEscan service)
The format is binding. Conditions: for remaining binding at 10 µM: read-out: Percent control; for Percent control: 10 μM.

The target of the next test is T9, FLT3(R834Q) (Homo sapiens, UniProt P36888, R834Q).
T9 sequence (P36888 27-993 R834Q): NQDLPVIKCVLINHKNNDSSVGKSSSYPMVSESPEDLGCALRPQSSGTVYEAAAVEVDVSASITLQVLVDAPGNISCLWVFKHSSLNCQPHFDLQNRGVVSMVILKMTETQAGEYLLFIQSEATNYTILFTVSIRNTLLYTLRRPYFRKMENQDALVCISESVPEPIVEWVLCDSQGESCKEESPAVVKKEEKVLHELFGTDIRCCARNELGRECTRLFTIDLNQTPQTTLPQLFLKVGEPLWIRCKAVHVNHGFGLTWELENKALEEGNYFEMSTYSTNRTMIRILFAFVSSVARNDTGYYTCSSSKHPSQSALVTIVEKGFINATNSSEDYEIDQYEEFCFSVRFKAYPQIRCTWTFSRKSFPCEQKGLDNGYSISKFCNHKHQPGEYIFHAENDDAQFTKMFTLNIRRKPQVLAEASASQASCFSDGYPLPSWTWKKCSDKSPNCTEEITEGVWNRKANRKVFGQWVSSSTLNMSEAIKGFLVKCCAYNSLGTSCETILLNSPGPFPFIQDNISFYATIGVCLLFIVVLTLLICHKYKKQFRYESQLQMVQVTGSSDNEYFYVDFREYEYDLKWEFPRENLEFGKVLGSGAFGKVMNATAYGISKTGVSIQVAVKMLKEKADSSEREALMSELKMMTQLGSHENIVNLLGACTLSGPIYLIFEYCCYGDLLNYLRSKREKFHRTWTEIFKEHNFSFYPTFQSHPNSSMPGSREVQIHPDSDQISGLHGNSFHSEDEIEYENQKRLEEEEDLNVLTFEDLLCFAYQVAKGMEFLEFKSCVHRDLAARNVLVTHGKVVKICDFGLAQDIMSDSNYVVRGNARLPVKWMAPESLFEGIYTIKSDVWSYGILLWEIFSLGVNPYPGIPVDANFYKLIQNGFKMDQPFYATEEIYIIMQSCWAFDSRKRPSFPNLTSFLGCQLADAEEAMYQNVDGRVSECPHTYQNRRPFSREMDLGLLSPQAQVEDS

For another test, the target named is KIT(V559D) (Homo sapiens, UniProt P10721, V559D). Conditions: 10 μM.
Sequence of KIT(V559D) (P10721 26-976 V559D): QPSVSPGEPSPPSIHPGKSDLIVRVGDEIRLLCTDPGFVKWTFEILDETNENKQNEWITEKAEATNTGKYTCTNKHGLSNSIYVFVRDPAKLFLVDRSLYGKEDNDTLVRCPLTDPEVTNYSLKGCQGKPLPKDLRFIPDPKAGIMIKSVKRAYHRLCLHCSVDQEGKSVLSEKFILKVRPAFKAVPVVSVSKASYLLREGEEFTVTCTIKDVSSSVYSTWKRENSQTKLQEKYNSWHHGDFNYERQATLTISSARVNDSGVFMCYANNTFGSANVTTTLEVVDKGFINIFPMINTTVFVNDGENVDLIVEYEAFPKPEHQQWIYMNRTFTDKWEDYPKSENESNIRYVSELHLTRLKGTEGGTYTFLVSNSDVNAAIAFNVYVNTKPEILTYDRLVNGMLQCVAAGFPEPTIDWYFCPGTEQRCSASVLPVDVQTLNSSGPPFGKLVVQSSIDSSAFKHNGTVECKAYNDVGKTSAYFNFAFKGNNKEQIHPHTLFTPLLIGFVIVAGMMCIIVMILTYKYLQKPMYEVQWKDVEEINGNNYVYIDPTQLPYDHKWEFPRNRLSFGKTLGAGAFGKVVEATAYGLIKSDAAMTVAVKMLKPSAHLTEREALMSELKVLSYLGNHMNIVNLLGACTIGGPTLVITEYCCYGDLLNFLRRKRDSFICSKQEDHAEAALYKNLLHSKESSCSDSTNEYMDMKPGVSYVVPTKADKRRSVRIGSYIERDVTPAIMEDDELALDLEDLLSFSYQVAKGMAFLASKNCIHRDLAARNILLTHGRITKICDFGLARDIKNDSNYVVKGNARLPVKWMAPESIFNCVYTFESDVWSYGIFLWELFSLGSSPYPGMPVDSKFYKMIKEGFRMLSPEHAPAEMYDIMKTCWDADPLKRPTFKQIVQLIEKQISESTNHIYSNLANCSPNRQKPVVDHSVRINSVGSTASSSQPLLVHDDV

T6 sequence (Q07912 whole entry): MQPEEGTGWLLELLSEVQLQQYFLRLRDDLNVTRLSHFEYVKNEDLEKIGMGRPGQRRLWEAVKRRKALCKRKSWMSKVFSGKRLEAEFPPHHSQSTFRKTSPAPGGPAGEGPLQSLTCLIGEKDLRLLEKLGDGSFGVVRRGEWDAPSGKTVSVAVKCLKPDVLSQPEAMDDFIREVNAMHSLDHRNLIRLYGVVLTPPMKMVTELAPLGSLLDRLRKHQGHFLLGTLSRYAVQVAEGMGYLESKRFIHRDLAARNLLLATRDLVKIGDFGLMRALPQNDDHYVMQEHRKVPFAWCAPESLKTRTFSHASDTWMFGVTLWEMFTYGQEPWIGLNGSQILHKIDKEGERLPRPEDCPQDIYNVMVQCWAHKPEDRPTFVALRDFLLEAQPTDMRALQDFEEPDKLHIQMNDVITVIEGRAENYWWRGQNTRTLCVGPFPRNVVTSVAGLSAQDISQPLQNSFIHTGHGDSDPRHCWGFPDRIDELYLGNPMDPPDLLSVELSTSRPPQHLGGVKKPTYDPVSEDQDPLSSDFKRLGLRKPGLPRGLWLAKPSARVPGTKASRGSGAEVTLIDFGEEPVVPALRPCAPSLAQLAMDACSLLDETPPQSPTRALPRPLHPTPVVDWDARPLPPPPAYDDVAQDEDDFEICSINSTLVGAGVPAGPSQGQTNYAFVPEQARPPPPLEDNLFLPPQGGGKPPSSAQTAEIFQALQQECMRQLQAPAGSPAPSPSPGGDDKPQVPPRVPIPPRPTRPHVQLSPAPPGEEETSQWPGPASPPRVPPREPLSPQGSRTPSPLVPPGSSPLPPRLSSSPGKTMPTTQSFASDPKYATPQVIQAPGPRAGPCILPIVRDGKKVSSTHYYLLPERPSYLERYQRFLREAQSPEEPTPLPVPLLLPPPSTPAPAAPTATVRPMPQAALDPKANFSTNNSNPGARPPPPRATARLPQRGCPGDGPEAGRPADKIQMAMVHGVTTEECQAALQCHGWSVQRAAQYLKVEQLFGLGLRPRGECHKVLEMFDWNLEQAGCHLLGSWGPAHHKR
Sequence of PDGFRA (P16234 24-1089): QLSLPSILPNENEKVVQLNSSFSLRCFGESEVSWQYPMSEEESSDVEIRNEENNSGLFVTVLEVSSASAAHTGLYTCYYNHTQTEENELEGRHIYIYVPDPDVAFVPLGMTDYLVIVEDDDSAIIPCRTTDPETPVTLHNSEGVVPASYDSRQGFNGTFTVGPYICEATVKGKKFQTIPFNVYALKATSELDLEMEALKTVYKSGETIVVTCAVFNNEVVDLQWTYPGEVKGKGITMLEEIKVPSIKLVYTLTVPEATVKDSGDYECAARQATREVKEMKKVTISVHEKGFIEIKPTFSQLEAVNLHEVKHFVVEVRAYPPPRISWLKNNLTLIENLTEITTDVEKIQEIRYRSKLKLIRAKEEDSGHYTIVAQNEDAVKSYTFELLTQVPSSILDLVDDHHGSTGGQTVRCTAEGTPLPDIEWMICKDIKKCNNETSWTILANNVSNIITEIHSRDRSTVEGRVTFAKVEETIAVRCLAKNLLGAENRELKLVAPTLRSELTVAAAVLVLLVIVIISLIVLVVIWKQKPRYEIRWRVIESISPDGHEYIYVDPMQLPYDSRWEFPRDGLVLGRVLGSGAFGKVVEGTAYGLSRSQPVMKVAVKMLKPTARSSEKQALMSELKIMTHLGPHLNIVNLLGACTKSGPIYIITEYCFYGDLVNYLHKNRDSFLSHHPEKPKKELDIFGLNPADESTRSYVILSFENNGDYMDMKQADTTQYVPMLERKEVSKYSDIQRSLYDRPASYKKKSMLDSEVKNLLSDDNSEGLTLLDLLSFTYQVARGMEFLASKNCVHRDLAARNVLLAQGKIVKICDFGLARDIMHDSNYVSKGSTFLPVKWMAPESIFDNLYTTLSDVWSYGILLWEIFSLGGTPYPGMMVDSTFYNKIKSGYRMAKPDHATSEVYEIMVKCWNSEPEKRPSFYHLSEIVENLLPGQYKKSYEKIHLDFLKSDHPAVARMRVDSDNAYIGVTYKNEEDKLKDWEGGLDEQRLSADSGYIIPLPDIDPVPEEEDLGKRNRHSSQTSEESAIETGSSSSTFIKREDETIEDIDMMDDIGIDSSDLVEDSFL
T1 sequence (Q15375 28-998): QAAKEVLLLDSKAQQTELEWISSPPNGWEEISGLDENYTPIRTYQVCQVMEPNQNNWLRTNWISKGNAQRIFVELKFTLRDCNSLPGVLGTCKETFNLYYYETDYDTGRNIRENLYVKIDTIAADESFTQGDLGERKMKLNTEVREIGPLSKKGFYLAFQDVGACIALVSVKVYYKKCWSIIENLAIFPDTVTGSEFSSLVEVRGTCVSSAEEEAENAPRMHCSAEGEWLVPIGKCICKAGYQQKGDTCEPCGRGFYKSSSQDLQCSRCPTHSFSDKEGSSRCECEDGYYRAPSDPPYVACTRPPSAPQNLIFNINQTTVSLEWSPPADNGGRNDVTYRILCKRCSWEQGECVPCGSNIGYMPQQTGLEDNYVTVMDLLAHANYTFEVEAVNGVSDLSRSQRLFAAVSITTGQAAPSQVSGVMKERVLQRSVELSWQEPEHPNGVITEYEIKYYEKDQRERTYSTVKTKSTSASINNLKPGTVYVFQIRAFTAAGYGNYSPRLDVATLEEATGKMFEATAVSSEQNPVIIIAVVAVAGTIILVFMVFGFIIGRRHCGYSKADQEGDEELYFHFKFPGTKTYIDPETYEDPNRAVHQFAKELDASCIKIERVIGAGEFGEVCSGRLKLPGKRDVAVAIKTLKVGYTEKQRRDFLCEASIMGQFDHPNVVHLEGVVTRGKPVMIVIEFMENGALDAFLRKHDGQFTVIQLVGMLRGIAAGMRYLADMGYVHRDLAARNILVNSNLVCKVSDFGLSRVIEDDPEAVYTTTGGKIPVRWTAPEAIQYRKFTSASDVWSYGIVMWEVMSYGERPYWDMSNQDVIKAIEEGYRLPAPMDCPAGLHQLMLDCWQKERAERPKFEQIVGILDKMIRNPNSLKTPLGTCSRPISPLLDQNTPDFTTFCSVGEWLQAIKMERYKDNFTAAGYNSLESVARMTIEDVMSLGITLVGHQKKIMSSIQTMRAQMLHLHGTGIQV
T4 sequence (P09769 whole entry): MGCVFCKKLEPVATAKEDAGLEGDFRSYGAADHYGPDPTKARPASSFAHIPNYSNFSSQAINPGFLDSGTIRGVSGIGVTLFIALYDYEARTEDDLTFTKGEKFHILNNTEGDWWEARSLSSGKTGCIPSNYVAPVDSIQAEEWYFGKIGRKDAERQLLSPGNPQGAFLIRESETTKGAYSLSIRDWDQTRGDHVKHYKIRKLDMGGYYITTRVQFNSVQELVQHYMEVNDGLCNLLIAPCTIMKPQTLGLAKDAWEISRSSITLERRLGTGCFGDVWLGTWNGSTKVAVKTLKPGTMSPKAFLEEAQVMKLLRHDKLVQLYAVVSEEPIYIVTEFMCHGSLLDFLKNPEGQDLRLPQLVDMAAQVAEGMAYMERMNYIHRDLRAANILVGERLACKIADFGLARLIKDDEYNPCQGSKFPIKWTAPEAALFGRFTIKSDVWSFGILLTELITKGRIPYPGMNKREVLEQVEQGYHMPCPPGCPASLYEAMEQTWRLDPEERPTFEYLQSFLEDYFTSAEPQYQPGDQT
T8 sequence (P29597 589-875 limits assumed): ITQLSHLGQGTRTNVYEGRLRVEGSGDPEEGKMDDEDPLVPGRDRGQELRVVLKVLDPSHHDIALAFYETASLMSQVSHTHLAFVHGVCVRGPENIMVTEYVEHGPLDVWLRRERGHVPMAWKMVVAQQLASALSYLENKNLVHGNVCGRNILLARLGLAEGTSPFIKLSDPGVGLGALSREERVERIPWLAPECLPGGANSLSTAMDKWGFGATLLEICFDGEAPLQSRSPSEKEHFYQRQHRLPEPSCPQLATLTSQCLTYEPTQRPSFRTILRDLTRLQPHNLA

Regarding `COc1cc2c(Nc3ccc(Br)cc3F)ncnc2cc1OCC1CCN(C)CC1` [Vandetanib, reference compound], the remaining binding at 10 µM on EPHA7 (EPHA7, 10 μM) came to 19.4%; on ERBB3, 1.6%; at ERBB2 (ERBB2, 10 μM), 20.6%; on FGR, 2.6%; in test [1] it was 100%; at TNK2 (TNK2, 10 μM), 100%. Besides, the remaining binding at 10 µM turned out to be 0.9% on EPHA8 (EPHA8, 10 μM) and 100% in test [2]. Further, the remaining activity at 10 µM at PDGFRA came out at 2.2%.
As to `Cc1ccc(NC(=O)c2ccc(CN3CCN(C)CC3)cc2)cc1Nc1nccc(-c2cccnc2)[n+]1[Pt-2]1([Cl])[NH2+]C2CCCCC2[NH2+]1` (stereo not drawn) [1b, oxaliplatin-imatinib], the Percent control on FLT3(R834Q) (FLT3(R834Q), 10 μM) was determined as 94%; at EPHA7 (EPHA7, 10 μM) it was 100%; on ERBB3 it was 100%; on ERBB2 (ERBB2, 10 μM), 82%; at KIT(V559D), 0%; on FGR it was 80%. Also, the Percent control worked out at 100% in [1]; 100% at TNK2 (TNK2, 10 μM); 68% on EPHA8 (EPHA8, 10 μM); 100% in [2].
With `C#Cc1cccc(Nc2ncnc3cc(OCCOC)c(OCCOC)cc23)c1` [Erlotinib], the remaining binding at 10 µM was determined as 12.3% at EPHA7; 9.9% at ERBB3; 22.5% at ERBB2; 9.9% on FGR; 27% in [1]; 100% at TNK2 (TNK2, 10 μM). In addition, the remaining binding at 10 µM amounted to 8.6% on EPHA8 and 19.4% in test [2]. The remaining activity at 10 µM on PDGFRA turned out to be 15.3%.
In the case of `COc1cc2c(Nc3ccc(Br)cc3F)[n+]([Pt-2]3([Cl])[NH2+]C4CCCCC4[NH2+]3)cnc2cc1OCC1CCN(C)CC1` (stereo not drawn) [3b, oxaliplatin-vandetanib], the Percent control on FLT3(R834Q) worked out at 89; on EPHA7 (EPHA7, 10 μM) it was 79%; on ERBB3, 4.1%; at KIT(V559D), 0.5%; on FGR it was 33%; in test [1], 100%. The Percent control at TNK2 (TNK2, 10 μM) turned out to be 100%; at EPHA8 (EPHA8, 10 μM), 6.8%; in [2] it was 100%.
As for `C#Cc1cccc(Nc2c3cc(OCCOC)c(OCCOC)cc3nc[n+]2[Pt@SP2-2]([NH3+])([NH3+])[Cl])c1` [2a, cisplatin-erlotinib], the Percent control is on record as 80 at FLT3(R834Q); 67% at EPHA7 (EPHA7, 10 μM); 100% on ERBB3; 21% on ERBB2 (ERBB2, 10 μM); 88% at KIT(V559D); 81% at FGR. Also, the Percent control in test [1] is 46%; on TNK2 it was 100; at EPHA8 (EPHA8, 10 μM), 56%; in test [2], 100%.
Take `Cc1ccc(NC(=O)c2ccc(CN3CCN(C)CC3)cc2)cc1Nc1nccc(-c2cccnc2)n1` [Imatinib, reference compound]: the Percent control is listed as 100% on FLT3(R834Q) (FLT3(R834Q), 10 μM); 100% on EPHA7 (EPHA7, 10 μM); 100% at ERBB3; 100% at ERBB2 (ERBB2, 10 μM); 19.4% at FGR; 100% on TNK2 (TNK2, 10 μM). At EPHA8 (EPHA8, 10 μM), the Percent control turned out to be 12.3%. Moreover, the remaining binding at 10 µM in [1] came out at 100%; in test [2], 46.5%. Further, at PDGFRA, the remaining activity at 10 µM turned out to be 0.3%.
